Measured values reported in patent publication US20120029187A1, “HALOALKYLSULFONANILIDE DERIVATIVE” (Nissan Chemical Industries, Ltd., priority 2009, published 2012).

Columns and labels:
Format in all cases: in vivo
barnyardgrass [1] = assay: Test Example 2: herbicidal effects during the vegetation period under submerged conditions; details: treatment during the vegetation period under submerged conditions; dose 2.52 g/a
In short: (§1)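 Barnyardgrass, bulrush and ducksalad were co-sown in alluvial soil flooded to 4 cm and grown in a greenhouse at 25 to 30° C. At the 1- or 2-leaf stage, water-diluted emulsifiable concentrates went onto the water surface at set doses (g/a). Herbicidal effect was scored three weeks later on a graded scale.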

bulrush [2] = assay: as above; details: treatment during the vegetation period under submerged conditions; dose 2.52 g/a
In short: as §1

ducksalad [3] = assay: as above; details: treatment during the vegetation period under submerged conditions; dose 2.52 g/a
In short: as §1

barnyardgrass [4] = assay: Test Example 3: herbicidal effects in soil treatment; details: dose 3.2 g/a
In short: (§2)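 Seeds were sown in sterilized diluvial soil and covered with about 1.5 cm of soil. Compounds, formulated as emulsifiable concentrates and diluted with water, were sprayed evenly over the soil surface at set doses in g/a. Herbicidal effect was scored on a rating scale three weeks later.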

velvetleaf [5] = assay: as above; details: dose 3.2 g/a
In short: as §2

common ragweed [6] = assay: as above; details: dose 3.2 g/a
In short: as §2

large crabgrass [7] = assay: as above; details: dose 3.2 g/a
In short: as §2

water foxtail [8] = assay: as above; details: dose 3.2 g/a
In short: as §2

common lambsquater [9] = assay: as above; details: dose 3.2 g/a
In short: as §2

giant foxtail [10] = assay: as above; details: dose 3.2 g/a
In short: as §2

posumbu knotweed [11] = assay: as above; details: dose 3.2 g/a
In short: as §2

Italian ryegrass [12] = assay: as above; details: dose 3.2 g/a
In short: as §2

common chickweed [13] = assay: as above; details: dose 3.2 g/a
In short: as §2

redroot pigweed [14] = assay: as above; details: dose 3.2 g/a
In short: as §2

barnyardgrass [15] = assay: Test Example 4: herbicidal effect in foliage treatment; details: dose 3.2 g/a, three weeks after application
In short: (§3)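 Seeds were spot-sown in boxes of sterilized diluvial soil and raised in a greenhouse (25 to 30° C) for 14 days before a single foliar application. Compounds were applied as emulsifiable concentrates diluted with water, at predetermined doses in g/a. Injury was graded three weeks post-spray.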

velvetleaf [16] = assay: as above; details: dose 3.2 g/a, three weeks after application
In short: as §3

common ragweed [17] = assay: as above; details: dose 3.2 g/a, three weeks after application
In short: as §3

large crabgrass [18] = assay: as above; details: dose 3.2 g/a, three weeks after application
In short: as §3

water foxtail [19] = assay: as above; details: dose 3.2 g/a, three weeks after application
In short: as §3

common lambsquater [20] = assay: as above; details: dose 3.2 g/a, three weeks after application
In short: as §3

giant foxtail [21] = assay: as above; details: dose 3.2 g/a, three weeks after application
In short: as §3

posumbu knotweed [22] = assay: as above; details: dose 3.2 g/a, three weeks after application
In short: as §3

Italian ryegrass [23] = assay: as above; details: dose 3.2 g/a, three weeks after application
In short: as §3

common chickweed [24] = assay: as above; details: dose 3.2 g/a, three weeks after application
In short: as §3

redroot pigweed [25] = assay: as above; details: dose 3.2 g/a, three weeks after application
In short: as §3

barnyardgrass [26] = assay: Test Example 1: herbicidal effects in preemergence treatment under submerged conditions; details: dose 2.52 g/a
In short: (§4)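 Scoring 0 (<5% mortality) to 5 (≥90%) was done three weeks after preemergence application to the water surface of submerged (4 cm) alluvial soil, doses given as g per are. Weeds were seeded and 2.5-leaf rice transplanted on the treatment day; greenhouse at 25–30 °C.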

bulrush [27] = assay: as above; details: dose 2.52 g/a
In short: as §4

ducksalad [28] = assay: as above; details: dose 2.52 g/a
In short: as §4

transplanted rice = assay: Test Example 1: preemergence treatment under submerged conditions, effect on crop; details: dose 2.52 g/a
In short: as §4

SMILES: CCOC(=O)N(c1ccccc1CN1COC(C)(C2CC2)CC1=O)S(=O)(=O)C(F)(F)F (centres unmarked) [II-45]
- A: barnyardgrass, herbicidal effect (evaluation scale 0-5) (barnyardgrass [1]): 5 (mortality of 90% or above (nearly complete death))
- B: bulrush, herbicidal effect (evaluation scale 0-5) (bulrush [2]): 5 (mortality of 90% or above (nearly complete death))
- C: ducksalad, herbicidal effect (evaluation scale 0-5) (ducksalad [3]): 5 (mortality of 90% or above (nearly complete death))
- A: barnyardgrass, herbicidal effect (evaluation scale 0-5) (barnyardgrass [4]): 5 (mortality of 90% or above (nearly complete death))
- I: velvetleaf, herbicidal effect (evaluation scale 0-5) (velvetleaf [5]): 0 (mortality of less than 5% (almost ineffective))
- J: common ragweed, herbicidal effect (evaluation scale 0-5) (common ragweed [6]): 4 (mortality of at least 70% and less than 90%)
- D: large crabgrass, herbicidal effect (evaluation scale 0-5) (large crabgrass [7]): 4 (mortality of at least 70% and less than 90%)
- G: water foxtail, herbicidal effect (evaluation scale 0-5) (water foxtail [8]): 5 (mortality of 90% or above (nearly complete death))
- L: common lambsquater, herbicidal effect (evaluation scale 0-5) (common lambsquater [9]): 0 (mortality of less than 5% (almost ineffective))
- E: giant foxtail, herbicidal effect (evaluation scale 0-5) (giant foxtail [10]): 4 (mortality of at least 70% and less than 90%)
- M: posumbu knotweed, herbicidal effect (evaluation scale 0-5) (posumbu knotweed [11]): 4 (mortality of at least 70% and less than 90%)
- H: Italian ryegrass, herbicidal effect (evaluation scale 0-5) (Italian ryegrass [12]): 4 (mortality of at least 70% and less than 90%)
- N: common chickweed, herbicidal effect (evaluation scale 0-5) (common chickweed [13]): 3 (mortality of at least 40% and less than 70%)
- K: redroot pigweed, herbicidal effect (evaluation scale 0-5) (redroot pigweed [14]): 0 (mortality of less than 5% (almost ineffective))
- A: barnyardgrass, herbicidal effect (barnyardgrass [15]): 4 (mortality of at least 70% and less than 90%)
- I: velvetleaf, herbicidal effect (velvetleaf [16]): 2 (mortality of at least 20% and less than 40%)
- J: common ragweed, herbicidal effect (common ragweed [17]): 3 (mortality of at least 40% and less than 70%)
- D: large crabgrass, herbicidal effect (large crabgrass [18]): 3 (mortality of at least 40% and less than 70%)
- G: water foxtail, herbicidal effect (water foxtail [19]): 4 (mortality of at least 70% and less than 90%)
- L: common lambsquater, herbicidal effect (common lambsquater [20]): 3 (mortality of at least 40% and less than 70%)
- E: giant foxtail, herbicidal effect (giant foxtail [21]): 2 (mortality of at least 20% and less than 40%)
- M: posumbu knotweed, herbicidal effect (posumbu knotweed [22]): 3 (mortality of at least 40% and less than 70%)
- H: Italian ryegrass, herbicidal effect (Italian ryegrass [23]): 4 (mortality of at least 70% and less than 90%)
- N: common chickweed, herbicidal effect (common chickweed [24]): 3 (mortality of at least 40% and less than 70%)
- K: redroot pigweed, herbicidal effect (redroot pigweed [25]): 0 (mortality of less than 5% (almost ineffective))
- A: barnyardgrass, herbicidal effect (evaluation scale 0-5) (barnyardgrass [26]): 5 (mortality of 90% or above (nearly complete death))
- B: bulrush, herbicidal effect (evaluation scale 0-5) (bulrush [27]): 5 (mortality of 90% or above (nearly complete death))
- C: ducksalad, herbicidal effect (evaluation scale 0-5) (ducksalad [28]): 5 (mortality of 90% or above (nearly complete death))
- a: transplanted rice, effect on crop (evaluation scale 0-5) (transplanted rice): 0 (mortality of less than 5% (almost ineffective))
